# Data from patent publication US9855268B2, “Triazolo[4,5-d]pyrimidine derivatives” (Merck Patent GmbH, priority 2013, dated 2018).
# Counter-ions that a name gives are not always drawn.
# Biological target: GCN2 (Homo sapiens, UniProt Q9P2K8)
# Experiment: GCN2 enzyme assay (TR-FRET Lanthascreen, GFP-eIF2alpha phosphorylation)
# Format: biochemical
# Details: 10 μM ATP, 80 nM GFP-eIF2a, 30 nM GCN2
# Text: GCN2: Assay Principle & Conditions
# This assay can quantificate the activity of the serin kinase GCN2 (general control non-derepressible-2).
# This kinase is involved in the stress metabolism of cells. It is activated upon starvation (amino acid depletion). Its natural substrate is eIF2a (eukaryotic initiation factor 2 alpha subunit), a translation factor, which gets activated (phosphorylated) by GCN2 in case of an amino acid bottleneck in the cells. This in turn leads to a halt of the protein synthesis. Inhibition of GCN2 results in stopping this mechanism: The cell can not stop protein production upon “starvation” stress.
# The assay is run in two steps: the enzymatic reaction and the detection step. In the first step GCN2 is incubated with 10 μM ATP and 80 nM of the GFP-labelled substrate eIF2alpha at room temperature.
# The enzymatic reaction is stopped by addition of EDTA. The amount of phosphorylated eIF2alpha is determined by TR-FRET (Lanthascreen): A complex is formed consisting of antibody and GFP labelled phospho-eIF2a, which allows a FRET upon exitation at 340 nm.
# Final Concentrations in the Enzymatic Reaction
# Chain of GCN2 (Q9P2K8 whole entry, species assumed): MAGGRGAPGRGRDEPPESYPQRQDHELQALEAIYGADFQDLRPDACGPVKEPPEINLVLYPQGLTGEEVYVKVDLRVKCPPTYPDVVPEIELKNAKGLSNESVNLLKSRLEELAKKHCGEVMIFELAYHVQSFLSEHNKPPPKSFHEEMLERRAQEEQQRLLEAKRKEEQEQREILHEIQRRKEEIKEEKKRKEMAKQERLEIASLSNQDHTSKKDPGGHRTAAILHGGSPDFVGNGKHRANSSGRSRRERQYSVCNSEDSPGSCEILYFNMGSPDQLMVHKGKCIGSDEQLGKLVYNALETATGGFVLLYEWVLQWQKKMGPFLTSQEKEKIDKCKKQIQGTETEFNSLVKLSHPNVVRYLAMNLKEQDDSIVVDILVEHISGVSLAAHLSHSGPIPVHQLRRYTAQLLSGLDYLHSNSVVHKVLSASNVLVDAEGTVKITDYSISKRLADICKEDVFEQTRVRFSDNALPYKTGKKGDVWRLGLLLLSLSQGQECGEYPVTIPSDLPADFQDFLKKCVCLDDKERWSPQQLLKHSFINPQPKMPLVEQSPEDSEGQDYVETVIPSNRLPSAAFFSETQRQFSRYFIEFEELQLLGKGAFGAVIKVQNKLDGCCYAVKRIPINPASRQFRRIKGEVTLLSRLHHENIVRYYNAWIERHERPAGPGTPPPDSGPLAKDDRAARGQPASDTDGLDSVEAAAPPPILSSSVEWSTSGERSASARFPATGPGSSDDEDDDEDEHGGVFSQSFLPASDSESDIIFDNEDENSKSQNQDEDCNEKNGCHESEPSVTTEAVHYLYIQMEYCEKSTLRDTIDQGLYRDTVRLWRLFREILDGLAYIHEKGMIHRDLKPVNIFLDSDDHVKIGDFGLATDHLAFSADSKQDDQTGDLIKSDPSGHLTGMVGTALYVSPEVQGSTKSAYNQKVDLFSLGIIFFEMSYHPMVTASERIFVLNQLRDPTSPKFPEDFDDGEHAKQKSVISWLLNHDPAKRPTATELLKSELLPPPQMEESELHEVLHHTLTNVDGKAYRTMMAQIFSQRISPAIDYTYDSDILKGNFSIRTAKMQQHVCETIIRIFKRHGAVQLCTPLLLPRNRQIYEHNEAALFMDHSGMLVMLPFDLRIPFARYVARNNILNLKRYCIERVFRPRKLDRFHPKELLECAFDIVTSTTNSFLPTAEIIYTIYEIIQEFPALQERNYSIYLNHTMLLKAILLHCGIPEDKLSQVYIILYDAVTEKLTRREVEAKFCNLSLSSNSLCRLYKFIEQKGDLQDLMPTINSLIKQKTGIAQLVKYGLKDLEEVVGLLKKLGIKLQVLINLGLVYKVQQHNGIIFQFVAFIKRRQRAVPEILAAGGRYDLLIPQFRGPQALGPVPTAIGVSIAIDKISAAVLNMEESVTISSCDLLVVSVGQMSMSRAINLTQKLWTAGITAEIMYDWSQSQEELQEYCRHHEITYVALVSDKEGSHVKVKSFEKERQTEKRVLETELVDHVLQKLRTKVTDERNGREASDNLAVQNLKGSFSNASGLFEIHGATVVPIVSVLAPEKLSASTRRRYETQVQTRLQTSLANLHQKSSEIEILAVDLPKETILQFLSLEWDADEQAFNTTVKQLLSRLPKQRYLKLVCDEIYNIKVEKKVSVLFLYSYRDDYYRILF
row,SMILES,IC50 [nM]
1,"NC(=O)CCn1cc(-c2ccc(-n3nnc4cnc(N[C@H]5CC[C@H](O)C5)nc43)cc2)cn1 (relative stereo) [A268, 3-(4-{4-[5-(trans-3-hydroxy-cyclopentylamino)-[1,2,3]triazolo[4,5-d]pyrimidin-3-yl]-phenyl}-pyrazol-1-yl)-propionamide]",< 1000
2,"COc1ccc(-n2nnc3cnc(N[C@@H]4CC[C@H](C#N)C4)nc32)cc1 (relative stereo) [A275, cis-3-[3-(4-Methoxy-phenyl)-3H-[1,2,3]triazolo[4,5-d]pyrimidin-5-ylamino]-cyclopentanecarbonitrile]",< 1000
3,"CCOc1ccc(-n2nnc3cnc(N[C@H]4CC[C@H](n5ncccc5=O)C4)nc32)cc1 (relative stereo) [A287, 2-{(trans)-3-[3-(4-ethoxy-phenyl)-3H-[1,2,3]triazolo[4,5-d]-pyrimidin-5-ylamino]-cyclopentyl}-2H-pyridazin-3-one]",< 1000
4,"CC(C)(O)c1ccc(-n2nnc3cnc(N[C@@H]4CC[C@@H](O)C4)nc32)cc1 (relative stereo) [A290, (trans)-3-{3-[4-(1-Hydroxy-1-methyl-ethyl)-phenyl]-3H-[1,2,3]triazolo[4,5-d]pyrimidin-5-ylamino}-cyclopentanol]",< 1000
5,"COc1ccc(-n2nnc3cnc(NC(C)C)nc32)cc1 [A2, Isopropyl-[3-(4-methoxy-phenyl)-3H-[1,2,3]triazolo[4,5-d]pyrimidin-5-yl]-amine]",< 1000
6,"COc1ccc(-n2nnc3cnc(NC4CCOCC4)nc32)cc1 [A3, [3-(4-methoxy-phenyl)-3H-[1,2,3]triazolo[4,5-d]pyrimidin-5-yl]-(tetrahydro-pyran-4-yl)-amine]",1000 to 5000
7,"COc1ccc(-n2nnc3cnc(N[C@H]4CC[C@H](O)CC4)nc32)cc1 [A6, trans-4-[3-(4-methoxy-phenyl)-3H-[1,2,3]triazolo[4,5-d]pyrimidin-5-ylamino]-cyclohexanol]",< 1000
8,"COc1ccc(-n2nnc3cnc(NC(C)(C)C)nc32)cc1 [A7, tert-butyl-[3-(4-methoxy-phenyl)-3H-[1,2,3]triazolo[4,5-d]pyrimidin-5-yl]-amine]",< 1000
9,"COc1ccc(-n2nnc3cnc(NC4CCS(=O)(=O)C4)nc32)cc1 (stereo not shown) [A8, N-(1,1-dioxothiolan-3-yl)-3-(4-methoxyphenyl)triazolo[4,5-d]pyrimidin-5-amine]",< 1000
10,"COc1ccc(-n2nnc3cnc(NC4CCCC4)nc32)cc1 [A12, cyclopentyl-[3-(4-methoxy-phenyl)-3H-[1,2,3]triazolo[4,5-d]pyrimidin-5-yl]-amine]",< 1000
11,"COc1ccc(-n2nnc3cnc(NCCCN4CCN(C)CC4)nc32)cc1 [A13, [3-(4-methoxy-phenyl)-3H-[1,2,3]triazolo[4,5-d]pyrimidin-5-yl]-[3-(4-methyl-piperazin-1-yl)-propyl]-amine]",1000 to 5000
12,"CNc1ncc2nnn(-c3ccc(OC)cc3)c2n1 [A14, [3-(4-methoxy-phenyl)-3H-[1,2,3]triazolo[4,5-d]pyrimidin-5-yl]-methyl-amine]",1000 to 5000
13,"COc1ccc(-n2nnc3cnc(NC4CC(C)(C)N(C)C(C)(C)C4)nc32)cc1 [A15, [3-(4-methoxy-phenyl)-3H-[1,2,3]triazolo[4,5-d]pyrimidin-5-yl]-(1,2,2,6,6-pentamethyl-piperidin-4-yl)-amine]",5000 to 10000
14,"CCNc1ncc2nnn(-c3ccc(OC)cc3)c2n1 [A16, ethyl-[3-(4-methoxy-phenyl)-3H-[1,2,3]triazolo[4,5-d]pyrimidin-5-yl]-amine]",< 1000
15,"COc1ccc(-n2nnc3cnc(NC4CC(C)(C)NC(C)(C)C4)nc32)cc1 [A17, [3-(4-methoxy-phenyl)-3H-[1,2,3]triazolo[4,5-d]pyrimidin-5-yl]-(2,2,6,6-tetramethyl-piperidin-4-yl)-amine]",5000 to 10000
16,"COc1ccc(-n2nnc3cnc(NC4CCN(C)CC4)nc32)cc1 [A18, [3-(4-methoxy-phenyl)-3H-[1,2,3]triazolo[4,5-d]pyrimidin-5-yl]-(1-methyl-piperidin-4-yl)-amine]",1000 to 5000
17,"COc1ccc(-n2nnc3cnc(NC4C5CN(C)CC54)nc32)cc1 (stereo not shown) [A19, [3-(4-methoxy-phenyl)-3H-[1,2,3]triazolo[4,5-d]pyrimidin-5-yl]-(3-methyl-3-aza-bicyclo[3.1.0]hex-6-yl)-amine]",5000 to 10000
18,"COc1ccc(-n2nnc3cnc(NC4CC(=O)N(C)C4)nc32)cc1 (stereo not shown) [A20, 4-[3-(4-methoxy-phenyl)-3H-[1,2,3]triazolo[4,5-d]pyrimidin-5-ylamino]-1-methyl-pyrrolidin-2-one]",1000 to 5000
19,"COc1ccc(-n2nnc3cnc(NC4CCC4)nc32)cc1 [A21, cyclobutyl-[3-(4-methoxy-phenyl)-3H-[1,2,3]triazolo[4,5-d]pyrimidin-5-yl]-amine]",< 1000

row,SMILES,IC50 [nM]
1,"COc1ccc(-n2nnc3cnc(NC4CCc5[nH]ncc5C4)nc32)cc1 (stereo not shown) [A23, [3-(4-methoxy-phenyl)-3H-[1,2,3]triazolo[4,5-d]pyrimidin-5-yl]-(4,5,6,7-tetrahydro-1H-indazol-5-yl)-amine]",< 1000
2,"COc1ccc(-n2nnc3cnc(N[C@H]4C[C@H](O)C4)nc32)cc1 [A24, trans-3-[3-(4-methoxy-phenyl)-3H-[1,2,3]triazolo[4,5-d]pyrimidin-5-ylamino]-cyclobutanol]",< 1000
3,"COc1ccc(-n2nnc3cnc(N[C@H]4C[C@@H](O)C4)nc32)cc1 [A25, cis-3-[3-(4-methoxy-phenyl)-3H-[1,2,3]triazolo[4,5-d]pyrimidin-5-ylamino]-cyclobutanol]",< 1000
4,"COc1ccc(-n2nnc3cnc(N[C@H]4CC[C@@H](O)CC4)nc32)cc1 [A26, cis-4-[3-(4-methoxy-phenyl)-3H-[1,2,3]triazolo[4,5-d]pyrimidin-5-ylamino]-cyclohexanol]",< 1000
5,"COc1ccc(-n2nnc3cnc(N[C@H]4CCOC4)nc32)cc1 [A28, [3-(4-methoxy-phenyl)-3H-[1,2,3]triazolo[4,5-d]pyrimidin-5-yl]-(S)-tetrahydrofuran-3-yl-amine]",< 1000
6,"COc1ccc(-n2nnc3cnc(N[C@H]4C[C@@H](NC(=O)OC(C)(C)C)C4)nc32)cc1 [A30, {cis-3-[3-(4-methoxy-phenyl)-3H-[1,2,3]triazolo[4,5-d]pyrimidin-5-ylamino]-cyclobutyl}-carbamic acid tert-butyl ester]",< 1000
7,"COc1ccc(-n2nnc3cnc(N[C@H]4C[C@@H](N)C4)nc32)cc1 [A31, cis-N-[3-(4-methoxy-phenyl)-3H-[1,2,3]triazolo[4,5-d]pyrimidin-5-yl]-cyclobutane-1,3-diamine hydrochloride]",1000 to 5000
8,"COc1ccc(-n2nnc3cnc(N[C@H]4C[C@H](NC(=O)OC(C)(C)C)C4)nc32)cc1 [A32, {trans-3-[3-(4-methoxy-phenyl)-3H-[1,2,3]triazolo[4,5-d]pyrimidin-5-ylamino]-cyclobutyl}-carbamic acid tert-butyl ester]",< 1000
9,"COc1ccc(-n2nnc3cnc(N[C@H]4CC[C@H](CNC(=O)OC(C)(C)C)CC4)nc32)cc1 [A33, {4-[3-(4-methoxy-phenyl)-3H-[1,2,3]triazolo[4,5-d]pyrimidin-5-ylamino]-cyclohexylmethyl}-carbamic acid tert-butyl ester]",1000 to 5000
10,"COc1ccc(-n2nnc3cnc(NC4CCN(C(=O)OC(C)(C)C)CC4)nc32)cc1 [A34, 4-[3-(4-methoxy-phenyl)-3H-[1,2,3]triazolo[4,5-d]pyrimidin-5-ylamino]-piperidine-1-carboxylic acid tert-butyl ester]",< 1000
11,"COc1ccc(-n2nnc3cnc(NC4C5CNCC54)nc32)cc1 (stereo not shown) [A37, (3-aza-bicyclo[3.1.0]hex-6-yl)-[3-(4-methoxy-phenyl)-3H-[1,2,3]triazolo[4,5-d]pyrimidin-5-yl]-amine hydrochloride]",5000 to 10000
12,"COc1ccc(-n2nnc3cnc(NC4CCNCC4)nc32)cc1 [A40, [3-(4-methoxy-phenyl)-3H-[1,2,3]triazolo[4,5-d]pyrimidin-5-yl]-piperidin-4-yl-amine hydrochloride]",< 1000
13,"COc1ccc(-n2nnc3cnc(NC4CCCN(C(C)=O)C4)nc32)cc1 (stereo not shown) [A42, 1-{3-[3-(4-methoxy-phenyl)-3H-[1,2,3]triazolo[4,5-d]pyrimidin-5-ylamino]-piperidin-1-yl}-ethanone]",< 1000
14,"COc1ccc(-n2nnc3cnc(NC4CCCNC4)nc32)cc1 (stereo not shown) [A43, [3-(4-methoxy-phenyl)-3H-[1,2,3]triazolo[4,5-d]pyrimidin-5-yl]-piperidin-3-yl-amine hydrochloride]",1000 to 5000
15,"O=C(O)CCOc1ccc(-n2nnc3cnc(NCCCn4cc([N+](=O)[O-])cn4)nc32)cc1 [A46, 3-(4-{5-[3-(4-nitro-pyrazol-1-yl)-propylamino]-[1,2,3]triazolo[4,5-d]-pyrimidin-3-yl}-phenoxy)-propionic acid]",< 1000
16,"Nc1cnn(CCCNc2ncc3nnn(-c4ccc(OCCC(=O)O)cc4)c3n2)c1 [A47, 3-(4-{5-[3-(4-amino-pyrazol-1-yl)-propylamino]-[1,2,3]triazolo[4,5-d]pyrimidin-3-yl}-phenoxy)-propionic acid]",< 1000
17,"COc1ccc(-n2nnc3cnc(NC4CCN(C(=O)CN(C)C)CC4)nc32)cc1 [A48, 2-dimethylamino-1-{4-[3-(4-methoxy-phenyl)-3H-[1,2,3]triazolo-[4,5-d]pyrimidin-5-ylamino]-piperidin-1-yl}-ethanone]",< 1000
18,"COc1ccc(-n2nnc3cnc(NCCN4CCN(C)CC4)nc32)cc1 [A50, [3-(4-methoxy-phenyl)-3H-[1,2,3]triazolo[4,5-d]pyrimidin-5-yl]-[2-(4-methyl-piperazin-1-yl)-ethyl]-amine]",1000 to 5000
